These results are taken from ChEMBL document CHEMBL1155439, “Transient receptor potential ankyrin 1 (TRPA1) channel as emerging target for novel analgesics and anti-inflammatory agents” (J Med Chem, 2010).

Assay [1] deals with T1, Transient receptor potential cation channel subfamily A member 1 (Homo sapiens, UniProt O75762). The assay is described as follows: Antagonist activity at human TRPA1 channel assessed as inhibition of allyl isothiocyanate-induced intracellular calcium influx. The assay is classed as functional, cell-based. On the technique in general: A change in cytosolic calcium serves as a functional read-out for many receptors and channels.
T1 sequence (O75762 whole entry): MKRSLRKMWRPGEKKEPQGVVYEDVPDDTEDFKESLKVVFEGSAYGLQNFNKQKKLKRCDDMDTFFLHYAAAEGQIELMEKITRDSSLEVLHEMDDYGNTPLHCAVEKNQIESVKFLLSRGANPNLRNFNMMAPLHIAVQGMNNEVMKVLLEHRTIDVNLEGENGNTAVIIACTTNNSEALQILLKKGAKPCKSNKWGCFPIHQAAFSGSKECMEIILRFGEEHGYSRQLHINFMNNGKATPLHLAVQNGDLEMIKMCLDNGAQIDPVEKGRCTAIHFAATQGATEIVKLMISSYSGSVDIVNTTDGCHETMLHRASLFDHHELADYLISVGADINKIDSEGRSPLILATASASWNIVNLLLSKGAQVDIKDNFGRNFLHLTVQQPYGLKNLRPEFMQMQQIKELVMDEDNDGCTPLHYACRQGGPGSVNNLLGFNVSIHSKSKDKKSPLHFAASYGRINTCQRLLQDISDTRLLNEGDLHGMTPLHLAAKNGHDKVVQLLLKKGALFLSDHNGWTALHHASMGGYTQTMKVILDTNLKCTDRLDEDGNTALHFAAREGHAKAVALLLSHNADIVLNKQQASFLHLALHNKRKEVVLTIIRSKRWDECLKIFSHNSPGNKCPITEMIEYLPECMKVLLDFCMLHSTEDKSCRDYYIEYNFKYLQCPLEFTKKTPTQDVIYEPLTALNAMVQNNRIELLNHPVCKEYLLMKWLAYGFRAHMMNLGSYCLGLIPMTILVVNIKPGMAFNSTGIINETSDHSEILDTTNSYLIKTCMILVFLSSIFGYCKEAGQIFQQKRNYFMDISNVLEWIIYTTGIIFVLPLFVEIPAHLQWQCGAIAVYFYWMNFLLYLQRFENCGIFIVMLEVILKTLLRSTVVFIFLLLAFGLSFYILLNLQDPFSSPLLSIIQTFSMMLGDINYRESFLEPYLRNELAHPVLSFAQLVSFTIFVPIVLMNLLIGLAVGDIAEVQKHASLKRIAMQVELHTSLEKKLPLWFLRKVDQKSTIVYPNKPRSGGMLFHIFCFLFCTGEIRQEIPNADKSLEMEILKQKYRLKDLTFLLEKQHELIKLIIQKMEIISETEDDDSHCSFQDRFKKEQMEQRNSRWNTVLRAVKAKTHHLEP

The target in assay [2] is T2, Transient receptor potential cation channel subfamily A member 1 (Mus musculus, UniProt Q8BLA8). In words: Activation of mouse TRPA1 channel.
T2 sequence (Q8BLA8 whole entry): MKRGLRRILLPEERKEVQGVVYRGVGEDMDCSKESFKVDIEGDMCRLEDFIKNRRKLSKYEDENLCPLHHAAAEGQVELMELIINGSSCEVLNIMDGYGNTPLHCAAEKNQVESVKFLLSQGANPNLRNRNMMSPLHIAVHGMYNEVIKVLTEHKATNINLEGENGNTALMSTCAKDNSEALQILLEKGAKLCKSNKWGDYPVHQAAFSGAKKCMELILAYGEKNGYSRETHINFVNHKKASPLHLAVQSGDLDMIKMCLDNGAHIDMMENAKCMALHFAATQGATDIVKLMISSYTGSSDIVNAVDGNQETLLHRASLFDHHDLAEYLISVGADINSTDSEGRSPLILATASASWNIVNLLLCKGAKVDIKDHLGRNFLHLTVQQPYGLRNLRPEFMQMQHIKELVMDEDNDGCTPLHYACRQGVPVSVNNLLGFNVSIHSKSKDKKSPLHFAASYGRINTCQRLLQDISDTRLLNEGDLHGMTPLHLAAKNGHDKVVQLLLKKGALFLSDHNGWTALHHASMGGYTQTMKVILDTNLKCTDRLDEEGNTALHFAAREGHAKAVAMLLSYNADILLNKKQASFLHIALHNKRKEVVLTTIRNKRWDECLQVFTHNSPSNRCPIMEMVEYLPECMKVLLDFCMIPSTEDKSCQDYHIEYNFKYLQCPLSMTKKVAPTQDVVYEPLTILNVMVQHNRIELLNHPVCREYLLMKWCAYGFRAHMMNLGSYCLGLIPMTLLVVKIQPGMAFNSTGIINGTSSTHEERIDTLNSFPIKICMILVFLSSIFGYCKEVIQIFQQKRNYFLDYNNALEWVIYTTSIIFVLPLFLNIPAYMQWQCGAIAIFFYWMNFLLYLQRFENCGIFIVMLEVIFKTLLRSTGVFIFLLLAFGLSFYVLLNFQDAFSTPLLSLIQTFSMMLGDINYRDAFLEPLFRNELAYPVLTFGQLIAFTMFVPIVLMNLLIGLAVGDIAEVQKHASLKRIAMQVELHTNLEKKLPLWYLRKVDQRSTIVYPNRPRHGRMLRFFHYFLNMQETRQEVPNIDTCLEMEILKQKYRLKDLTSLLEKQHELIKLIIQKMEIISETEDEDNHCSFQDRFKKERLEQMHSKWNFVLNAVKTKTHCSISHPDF
Assay [3] has as its target T1, Transient receptor potential cation channel subfamily A member 1. The assay is described as follows: Antagonist activity at human TRPA1 channel assessed as inhibition of 4-hydroxy-2-nonenal-induced response. It counts as functional.
Assay [4] has the same target. In words: Agonist activity at human TRPA1 channel expressed in HEK293 cells assessed as increase in intracellular calcium influx. The assay is classed as functional, cell-based.
The target in assay [5] is T2, Transient receptor potential cation channel subfamily A member 1. In words: Agonist activity at mouse TRPA1 channel expressed in HEK293 cells assessed as increase in intracellular calcium influx. The assay is classed as functional, cell-based.
The target is the same in assay [6]. The assay is described as follows: Agonist activity at TRPA1 channel in mouse dorsal root ganglion cells assessed as increase in intracellular calcium influx by radiometric Ca2+ imaging. The assay is classed as functional, tissue-based.
Assay [7] shares this target. The assay is described as follows: Antagonist activity at mouse TRPA1 channel expressed in CHO cells assessed as blockade of agonist-induced whole cell conductance by electrophysiology. It counts as functional, cell-based.
Assay [8] deals with T3, Transient receptor potential cation channel subfamily M member 8 (Homo sapiens, UniProt Q7Z2W7). In words: Activation of TRPM8 channel.
T3 sequence (Q7Z2W7 whole entry): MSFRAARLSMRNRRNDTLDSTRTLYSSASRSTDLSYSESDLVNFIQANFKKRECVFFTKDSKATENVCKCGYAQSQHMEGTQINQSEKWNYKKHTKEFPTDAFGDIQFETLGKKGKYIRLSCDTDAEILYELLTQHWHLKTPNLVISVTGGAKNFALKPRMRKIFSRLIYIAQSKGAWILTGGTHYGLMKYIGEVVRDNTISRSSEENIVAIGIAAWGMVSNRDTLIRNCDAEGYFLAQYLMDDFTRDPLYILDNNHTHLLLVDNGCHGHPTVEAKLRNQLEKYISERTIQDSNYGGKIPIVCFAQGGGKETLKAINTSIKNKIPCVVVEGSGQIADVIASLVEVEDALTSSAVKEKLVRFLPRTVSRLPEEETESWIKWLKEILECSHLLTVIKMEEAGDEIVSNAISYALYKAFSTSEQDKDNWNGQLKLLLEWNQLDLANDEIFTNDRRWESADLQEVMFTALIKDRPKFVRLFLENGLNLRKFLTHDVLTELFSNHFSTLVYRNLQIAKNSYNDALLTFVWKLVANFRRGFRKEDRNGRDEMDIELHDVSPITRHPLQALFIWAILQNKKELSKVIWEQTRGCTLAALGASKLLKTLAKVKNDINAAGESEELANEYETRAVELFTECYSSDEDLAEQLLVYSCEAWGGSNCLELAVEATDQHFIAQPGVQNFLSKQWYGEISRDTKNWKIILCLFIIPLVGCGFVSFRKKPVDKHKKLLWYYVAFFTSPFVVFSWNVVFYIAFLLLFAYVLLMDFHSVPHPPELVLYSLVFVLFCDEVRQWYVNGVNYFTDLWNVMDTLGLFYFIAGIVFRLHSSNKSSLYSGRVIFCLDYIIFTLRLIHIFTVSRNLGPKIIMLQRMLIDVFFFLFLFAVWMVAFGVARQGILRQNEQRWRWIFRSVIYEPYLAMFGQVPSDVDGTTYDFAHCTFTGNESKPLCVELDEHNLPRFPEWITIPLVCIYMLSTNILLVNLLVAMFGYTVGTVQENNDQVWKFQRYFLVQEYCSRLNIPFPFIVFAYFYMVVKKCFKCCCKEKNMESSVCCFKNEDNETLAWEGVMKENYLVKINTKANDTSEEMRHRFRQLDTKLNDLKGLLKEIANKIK
Assay [9] deals with T1, Transient receptor potential cation channel subfamily A member 1. The assay is described as follows: Antagonist activity at human TRPA1 channel expressed in CHO cells assessed as inhibition of cinnamaldehyde-induced intracellular calcium influx. It counts as functional, cell-based.
The target in assay [10] is T2, Transient receptor potential cation channel subfamily A member 1. In words: Antagonist activity at mouse TRPA1 channel expressed in CHO cells assessed as inhibition of cinnamaldehyde-induced intracellular calcium influx.
In assay [11] the target is T1, Transient receptor potential cation channel subfamily A member 1. In words: Agonist activity at human TRPA1 channel in HEK293 cells assessed as increase in intracellular calcium influx by radiometric Ca2+ imaging. It counts as functional, cell-based.
The target in assay [12] is T4, Transient receptor potential cation channel subfamily V member 3 (Homo sapiens, UniProt Q8NET8).
T4 sequence (Q8NET8 whole entry): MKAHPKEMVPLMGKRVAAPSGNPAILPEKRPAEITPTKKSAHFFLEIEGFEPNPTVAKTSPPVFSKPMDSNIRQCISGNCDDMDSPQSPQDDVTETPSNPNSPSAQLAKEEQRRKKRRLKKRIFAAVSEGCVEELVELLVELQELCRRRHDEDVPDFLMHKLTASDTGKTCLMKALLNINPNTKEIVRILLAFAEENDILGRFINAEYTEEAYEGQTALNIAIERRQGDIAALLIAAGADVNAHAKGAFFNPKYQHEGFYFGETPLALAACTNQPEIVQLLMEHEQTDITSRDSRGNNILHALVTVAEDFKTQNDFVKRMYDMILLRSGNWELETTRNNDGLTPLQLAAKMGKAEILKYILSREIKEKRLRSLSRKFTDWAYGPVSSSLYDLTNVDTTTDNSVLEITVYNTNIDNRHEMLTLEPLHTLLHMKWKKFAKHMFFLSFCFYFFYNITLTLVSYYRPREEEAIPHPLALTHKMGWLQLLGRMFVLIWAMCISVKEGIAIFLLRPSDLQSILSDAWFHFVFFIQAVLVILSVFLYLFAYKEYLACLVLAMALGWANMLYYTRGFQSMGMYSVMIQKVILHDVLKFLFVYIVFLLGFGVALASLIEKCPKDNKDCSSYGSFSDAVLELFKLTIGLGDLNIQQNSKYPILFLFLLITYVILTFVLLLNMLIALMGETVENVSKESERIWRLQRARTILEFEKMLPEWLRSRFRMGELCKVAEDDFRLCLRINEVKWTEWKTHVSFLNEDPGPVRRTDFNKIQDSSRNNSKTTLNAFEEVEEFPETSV
The assay is described as follows: Antagonist activity at human TRPV3 channel. It counts as functional.

For assay [13], the target named is T1, Transient receptor potential cation channel subfamily A member 1. The assay is described as follows: Antagonist activity at human TRPA1 channel assessed as inhibition of formalin-induced intracellular calcium influx. It counts as functional, cell-based.
For assay [14] the target is unchanged. In words: Antagonist activity at human TRPA1 channel expressed in HEK293 cells assessed as inhibition of allyl isothiocyanate-induced intracellular calcium influx by FLIPR. The assay is classed as functional, cell-based.
Assay [15] shares this target. In words: Antagonist activity at human TRPA1 channel assessed as inhibition of nifedipine-induced intracellular calcium influx. It counts as functional, cell-based.
Assay [16] has as its target Transient receptor potential cation channel subfamily V member 4 (Homo sapiens, UniProt Q9HBA0). In words: Antagonist activity at human TRPV4 channel. It counts as functional.
Assay [17] has as its target Transient receptor potential cation channel subfamily V member 1 (Homo sapiens, UniProt Q8NER1). The assay is described as follows: Antagonist activity at human TRPV1 channel. The assay is classed as functional.
Assay [18] concerns the target T3, Transient receptor potential cation channel subfamily M member 8. In words: Antagonist activity at human TRPM8 channel. It counts as functional.
Assay [19] concerns the target T1, Transient receptor potential cation channel subfamily A member 1. In words: Antagonist activity at human TRPA1 channel expressed in HEK293 cells assessed as inhibition of cinnamaldehyde-induced intracellular calcium influx by FLIPR. It counts as functional, cell-based.
For assay [20] the target is unchanged. The assay is described as follows: Activation of human TRPA1 channel.

Transient receptor potential cation channel subfamily V member 1, sequence (Q8NER1 whole entry): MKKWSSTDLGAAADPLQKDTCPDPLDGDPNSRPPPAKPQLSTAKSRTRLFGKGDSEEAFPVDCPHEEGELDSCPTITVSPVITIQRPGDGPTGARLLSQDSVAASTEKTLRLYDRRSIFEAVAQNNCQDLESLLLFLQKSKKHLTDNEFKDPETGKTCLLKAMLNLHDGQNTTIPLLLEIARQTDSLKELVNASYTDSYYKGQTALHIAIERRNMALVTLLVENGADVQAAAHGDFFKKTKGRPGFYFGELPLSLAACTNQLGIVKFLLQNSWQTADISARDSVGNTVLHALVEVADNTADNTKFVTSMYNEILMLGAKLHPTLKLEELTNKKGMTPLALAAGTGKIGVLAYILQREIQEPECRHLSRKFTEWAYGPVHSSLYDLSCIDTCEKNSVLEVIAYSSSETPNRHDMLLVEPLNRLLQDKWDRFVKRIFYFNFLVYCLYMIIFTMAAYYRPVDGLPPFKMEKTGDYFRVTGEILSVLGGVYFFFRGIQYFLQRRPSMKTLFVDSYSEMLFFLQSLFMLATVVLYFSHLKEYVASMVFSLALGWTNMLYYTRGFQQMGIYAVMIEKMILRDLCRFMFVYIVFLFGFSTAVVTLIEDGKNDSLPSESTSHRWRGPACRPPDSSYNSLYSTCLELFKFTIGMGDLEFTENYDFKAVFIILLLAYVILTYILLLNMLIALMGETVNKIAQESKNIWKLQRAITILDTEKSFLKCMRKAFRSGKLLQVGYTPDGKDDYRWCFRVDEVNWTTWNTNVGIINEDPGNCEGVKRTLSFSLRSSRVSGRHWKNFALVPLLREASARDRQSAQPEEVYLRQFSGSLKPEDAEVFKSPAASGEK
Transient receptor potential cation channel subfamily V member 4, sequence (Q9HBA0 whole entry): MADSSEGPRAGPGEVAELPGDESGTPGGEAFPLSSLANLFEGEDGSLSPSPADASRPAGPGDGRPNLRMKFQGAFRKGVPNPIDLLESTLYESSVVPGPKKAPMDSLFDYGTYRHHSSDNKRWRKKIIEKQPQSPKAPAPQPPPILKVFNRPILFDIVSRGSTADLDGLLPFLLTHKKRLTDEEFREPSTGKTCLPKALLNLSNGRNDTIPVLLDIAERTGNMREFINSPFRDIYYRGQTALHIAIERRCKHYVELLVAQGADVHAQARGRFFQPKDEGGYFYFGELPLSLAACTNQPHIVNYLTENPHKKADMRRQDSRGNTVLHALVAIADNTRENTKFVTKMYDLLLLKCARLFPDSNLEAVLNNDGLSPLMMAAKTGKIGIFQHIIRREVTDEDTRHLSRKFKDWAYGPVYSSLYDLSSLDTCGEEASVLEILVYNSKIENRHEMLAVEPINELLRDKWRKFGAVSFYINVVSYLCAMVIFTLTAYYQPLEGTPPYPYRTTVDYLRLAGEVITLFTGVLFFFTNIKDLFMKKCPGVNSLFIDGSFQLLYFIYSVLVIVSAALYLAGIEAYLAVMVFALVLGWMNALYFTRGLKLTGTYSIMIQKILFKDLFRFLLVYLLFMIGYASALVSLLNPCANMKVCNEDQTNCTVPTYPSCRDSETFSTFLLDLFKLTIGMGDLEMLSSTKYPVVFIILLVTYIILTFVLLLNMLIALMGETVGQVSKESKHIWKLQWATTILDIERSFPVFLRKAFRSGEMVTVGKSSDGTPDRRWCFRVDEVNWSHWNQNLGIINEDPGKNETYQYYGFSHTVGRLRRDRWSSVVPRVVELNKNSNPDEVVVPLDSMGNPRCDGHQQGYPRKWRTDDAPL

By IC50 is commonly meant the point on the concentration scale where inhibition reaches its midpoint. As usually defined, the EC50 is the midpoint of the concentration-response curve. Regarding `CCC(C)c1ccc(NC(=O)Cn2cnc3c2c(=O)n(C)c(=O)n3C)cc1` (stereo not drawn), the figures for the half-maximal inhibitory concentration (IC50) in assay [1] and in assay [3] were 14.3 µM and 18.7 µM, respectively. This compound also displayed an EC50 in assay [2] of 2500 µM.

Turning to `CC1(C)C[C@H]2C=C(C=O)[C@]3(C=O)C[C@]3(C)[C@H]2C1` [ISOVELLERAL], the EC50 is 0.59 µM in assay [4], 2.58 µM in assay [5] and 130 µM in [6].

Consider `CC1CCC(C(C)C)C(O)C1` (stereo not drawn) [MENTHOL], for which, in [7], the EC50 was found to be 56 µM.

As for `O=C1NC(c2cccc([N+](=O)[O-])c2)=CCN1c1ccccc1O` [ICILLIN], the half-maximal effective concentration (EC50) in assay [4] amounted to 100 µM; in [8], 0.06 µM.

As to `CC(=C\c1ccc(Cl)cc1)/C(C)=N/O` [AP18 5], the IC50 in assay [9] is 3.1 µM; in assay [10], 4.5 µM.

Consider `CCCCCCCC/C=C(\CCCCCCCC(=O)O)[N+](=O)[O-]` [NITROLEIC ACID], for which the concentration for a half-maximal effect (EC50) in [11] was found to be 1 µM.

`CC(C)c1ccc(NC(=O)Cn2cnc3c2c(=O)n(C)c(=O)n3C)cc1`: the IC50 in assay [12] was more than 10 µM; in [1], 6.2 µM; in assay [13], 5.3 µM; in assay [14], 7.5 µM; in assay [15], 1.8 µM; in assay [16] it was more than 10 µM. Moreover, the values for the IC50 in [17], in [18] and in assay [19] were more than 20 µM, more than 30 µM and 4.9 µM, respectively. This compound gave an EC50 in [2] of 1000 µM.

With `CCCCCC(=O)/C=C/C=O`, in assay [20], the EC50 was determined as 1.9 µM.
